Experimental findings from PubChem BioAssay AID248 (DTP/NCI, 2004) are described below.

The test relates to L1210 leukemia ip in BDF1 mice, survival T/C. Briefly: NCI In Vivo Anticancer Drug Screen. Data for tumor model L1210 Leukemia (intraperitoneal) in B6D2F1 (BDF1) mice. Particulars: endpoint: mean survival time, higher = longer survival. The method in brief: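 Ratio derived from survival: compound-dosed mice over vehicle-dosed mice, all bearing a transplantable tumor.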
The mark [1] stands for this setting: dose: 50.0 mg/kg/injection, schedule: Q01DX009 (ip), vehicle: Klucel (hydroxypropylcellulose) (HPC).
The mark [2] stands for this setting: dose: 100.0 mg/kg/injection, schedule: Q01DX009 (ip), vehicle: Klucel (hydroxypropylcellulose) (HPC).
The mark [3] stands for this setting: dose: 200.0 mg/kg/injection, schedule: Q01DX009 (ip), vehicle: Klucel (hydroxypropylcellulose) (HPC).
Where [4] appears, read: dose: 25.0 mg/kg/injection, schedule: Q01DX009 (ip), vehicle: saline with Tween-80.
Where [5] appears, read: dose: 50.0 mg/kg/injection, schedule: Q01DX009 (ip), vehicle: saline with Tween-80.
Setting [6] is: dose: 100.0 mg/kg/injection, schedule: Q04DX003 (ip), vehicle: Klucel (hydroxypropylcellulose) (HPC).
Where [7] appears, read: dose: 200.0 mg/kg/injection, schedule: Q04DX003 (ip), vehicle: Klucel (hydroxypropylcellulose) (HPC).
Setting [8] is: dose: 400.0 mg/kg/injection, schedule: Q04DX003 (ip), vehicle: Klucel (hydroxypropylcellulose) (HPC).
Where [9] appears, read: dose: 12.5 mg/kg/injection, schedule: Q01DX009 (ip), vehicle: saline with Tween-80.
Setting [10] is: dose: 25.0 mg/kg/injection, schedule: Q04DX003 (ip), vehicle: saline with Tween-80.
Where [11] appears, read: dose: 50.0 mg/kg/injection, schedule: Q04DX003 (ip), vehicle: saline with Tween-80.
Setting [12] is: dose: 100.0 mg/kg/injection, schedule: Q04DX003 (ip), vehicle: saline with Tween-80.
Setting [13] is: dose: 200.0 mg/kg/injection, schedule: Q04DX003 (ip), vehicle: saline with Tween-80.
The mark [14] stands for this setting: dose: 400.0 mg/kg/injection, schedule: Q04DX003 (ip), vehicle: saline with Tween-80.
Where [15] appears, read: dose: 3.12 mg/kg/injection, schedule: Q01DX009 (ip), vehicle: saline.

“And” between values parts separate entries of the source, which are not always exact repeats. Equal values may be shown once. Inconclusive results and toxic doses are left out.

Regarding `Nc1cc(=O)[nH]c(S(=O)O)n1`, the T/C under setting [1] is 100 % of control, the T/C under setting [2] is 98 % of control and the T/C under setting [3] was 98 % of control.
Regarding `CN(c1ccccc1)S(=O)(=O)c1ccc(N)cc1`, the T/C by setting is: (dose: 100.0 mg/kg/injection, schedule: Q01DX001 (ip), vehicle: Klucel (hydroxypropylcellulose) (HPC)) 96 % of control; (dose: 200.0 mg/kg/injection, schedule: Q01DX001 (ip), vehicle: Klucel (hydroxypropylcellulose) (HPC)) 104 % of control; (dose: 400.0 mg/kg/injection, schedule: Q01DX001 (ip), vehicle: Klucel (hydroxypropylcellulose) (HPC)) 102 % of control.
For `CN(N=O)C(=O)NN(C)C(=O)N(C)N=O`, the T/C is 114 % of control (dose: 50.0 mg/kg/injection, schedule: Q01DX001 (ip), vehicle: carboxymethylcellulose (CMC)); 121 % of control (dose: 200.0 mg/kg/injection, schedule: Q01DX001 (ip), vehicle: carboxymethylcellulose (CMC)); 114 % of control (dose: 300.0 mg/kg/injection, schedule: Q01DX001 (ip), vehicle: carboxymethylcellulose (CMC)); 121 % of control (dose: 400.0 mg/kg/injection, schedule: Q01DX001 (ip), vehicle: carboxymethylcellulose (CMC)).
Turning to `Cc1oc2ccc(NS(=O)(=O)c3ccccc3)cc2c1C(=O)O`, the T/C under setting [4] was 101 % of control; the T/C under setting [5] was 107 % of control; the T/C (dose: 100.0 mg/kg/injection, schedule: Q01DX009 (ip), vehicle: saline with Tween-80) is 101 % of control.
As to `CN(C)S(=O)(=O)c1ccc(C=C(c2ccccc2)c2ccccc2)cc1`, the T/C under setting [6] is 95 % of control, the T/C under setting [7] is 94 % of control and the T/C under setting [8] was 91 % of control.
For the compound `CC(C)(Br)C(=O)c1ccc([N+](=O)[O-])o1`, the T/C is 97 % of control under setting [9]; 104 % of control under setting [4]; 104 % of control under setting [10]; 95 % of control under setting [5]; 96 % of control under setting [11]; 99 % of control and 89 % of control under setting [12].
On to `O=c1[nH]c(-c2ccccc2)c(Br)c(=O)[nH]1`, for which the T/C is, setting by setting: under setting [12], 97 % of control; under setting [13], 107 % of control; under setting [14], 100 % of control.
Take `CC(=O)[O][Hg][c]1ccc(Cl)cc1`: the T/C reads like this: (dose: 5.0 mg/kg/injection, schedule: Q01DX001 (ip), vehicle: saline) 89 % of control; (dose: 10.0 mg/kg/injection, schedule: Q01DX001 (ip), vehicle: saline) 94 % of control; (dose: 20.0 mg/kg/injection, schedule: Q01DX001 (ip), vehicle: saline) 96 % of control; (dose: 40.0 mg/kg/injection, schedule: Q01DX001 (ip), vehicle: saline) 89 % of control; (dose: 80.0 mg/kg/injection, schedule: Q01DX001 (ip), vehicle: saline) 91 % of control.
With `[CH3][Sn]([CH3])([Cl])[CH2]Cl`, the T/C (dose: 0.39 mg/kg/injection, schedule: Q01DX009 (ip), vehicle: saline) is 112 % of control; the T/C (dose: 0.78 mg/kg/injection, schedule: Q01DX009 (ip), vehicle: saline) is 119 % of control; the T/C (dose: 1.56 mg/kg/injection, schedule: Q01DX009 (ip), vehicle: saline) is 97 % of control and 91 % of control; the T/C under setting [15] was 87 % of control.
For `Cc1nc2ccc(N=Cc3ccc(N(CCCl)CCCl)cc3C)cc2[nH]1`, the T/C is, setting by setting: under setting [6], 104 % of control; under setting [7], 102 % of control; under setting [8], 101 % of control.
Turning to `NC(CS)=NC1CCCC1`, the T/C (dose: 12.5 mg/kg/injection, schedule: Q04DX003 (ip), vehicle: saline) is 108 % of control; the T/C (dose: 25.0 mg/kg/injection, schedule: Q04DX003 (ip), vehicle: saline) was 115 % of control; the T/C (dose: 50.0 mg/kg/injection, schedule: Q04DX003 (ip), vehicle: saline) is 112 % of control.
As for `N#CCSc1nc(N)nc2nc[nH]c12`, the T/C runs as follows: (dose: 62.5 mg/kg/injection, schedule: Q01DX Z (ip), vehicle: methylcellulose (MC)) 101 % of control; (dose: 125.0 mg/kg/injection, schedule: Q01DX Z (ip), vehicle: methylcellulose (MC)) 105 % of control.
On to `Cc1cc(N)ccc1S(=O)(=O)F`, for which the T/C was 103 % of control under setting [12], 103 % of control under setting [13] and 100 % of control under setting [14].
For the compound `O=C1OC(c2ccccc2)C=C1Nc1ccccc1` (stereo not drawn), the T/C was 95 % of control under setting [12], 95 % of control under setting [13] and 91 % of control under setting [14].
On to `CCCc1cn(C2OC(=O)c3ccccc32)c2ccccc12` (stereo not drawn), for which the T/C is 96 % of control (dose: 100.0 mg/kg/injection, schedule: Q01DX001 (ip), vehicle: saline); 109 % of control (dose: 100.0 mg/kg/injection, schedule: Q04DX003 (ip), vehicle: saline); 105 % of control (dose: 200.0 mg/kg/injection, schedule: Q01DX001 (ip), vehicle: saline); 97 % of control (dose: 200.0 mg/kg/injection, schedule: Q04DX003 (ip), vehicle: saline); 102 % of control (dose: 400.0 mg/kg/injection, schedule: Q01DX001 (ip), vehicle: saline); 101 % of control (dose: 400.0 mg/kg/injection, schedule: Q04DX003 (ip), vehicle: saline).
Take `FC1(F)SC2CCCC2C1(F)F` (stereo not drawn): the T/C (dose: 3.13 mg/kg/injection, schedule: Q01DX009 (ip), vehicle: saline with Tween-80) was 95 % of control; the T/C (dose: 6.25 mg/kg/injection, schedule: Q01DX009 (ip), vehicle: saline with Tween-80) is 106 % of control; the T/C under setting [9] is 95 % of control and 101 % of control; the T/C (dose: 12.5 mg/kg/injection, schedule: Q04DX003 (ip), vehicle: saline with Tween-80) is 101 % of control; the T/C under setting [10] is 104 % of control; the T/C under setting [11] was 95 % of control.
On to `OCC1OC(n2cnc3c([Se]Cc4ccccc4)ncnc32)C(O)C1O` (stereo not drawn), for which the T/C is 97 % of control (dose: 1.56 mg/kg/injection, schedule: Q01DX005 (ip), vehicle: saline); 94 % of control (dose: 3.12 mg/kg/injection, schedule: Q01DX005 (ip), vehicle: saline); 103 % of control under setting [15]; 97 % of control (dose: 6.25 mg/kg/injection, schedule: Q01DX005 (ip), vehicle: saline); 95 % of control (dose: 6.25 mg/kg/injection, schedule: Q01DX009 (ip), vehicle: saline); 110 % of control (dose: 12.5 mg/kg/injection, schedule: Q01DX005 (ip), vehicle: saline). Further, the T/C (dose: 12.5 mg/kg/injection, schedule: Q01DX009 (ip), vehicle: saline) is 105 % of control.
On to `c1ccc(C2C(c3ccccc3)N2CCCN2CCOCC2)cc1` (stereo not drawn), for which the T/C is, setting by setting: under setting [1], 106 % of control; under setting [2], 103 % of control; under setting [6], 88 % of control; under setting [3], 107 % of control; under setting [7], 93 % of control.
As for `N#C/C(=C1C=C/C(=N/O)C(Br)=C/1)c1ccccc1`, the T/C under setting [12] was 96 % of control, the T/C under setting [13] was 100 % of control and the T/C under setting [14] is 98 % of control.
Take `O=C(O)c1ccc2ccc3cccnc3c2n1`: the T/C under setting [12] is 96 % of control and the T/C under setting [13] was 113 % of control.
For the compound `O=C1C=C(N2CC2)C(=O)C(N2CC2)=C1N1CC1`, the T/C (dose: 0.07 mg/kg/injection, schedule: Q01DX001 (ip), vehicle: saline) was 112 % of control; the T/C (dose: 0.1 mg/kg/injection, schedule: Q01DX Z (ip), vehicle: saline) was 93 % of control; the T/C (dose: 0.3 mg/kg/injection, schedule: Q01DX001 (ip), vehicle: saline) is 155 % of control; the T/C (dose: 0.6 mg/kg/injection, schedule: Q01DX001 (ip), vehicle: saline) was 87 % of control; the T/C (dose: 6.3 micrograms/kg/injection, schedule: Q01DX015 (ip), vehicle: saline) is 107 % of control; the T/C (dose: 12.5 micrograms/kg/injection, schedule: Q01DX015 (ip), vehicle: saline) is 102 % of control. Also, the T/C is 113 % of control (dose: 25.0 micrograms/kg/injection, schedule: Q01DX015 (ip), vehicle: saline) and 113 % of control (dose: 75.0 micrograms/kg/injection, schedule: Q01DX009 (ip), vehicle: saline).
As to `COc1cc(NC(=O)CC(C)=O)c(OC)cc1Cl`, the T/C under setting [12] is 100 % of control, the T/C under setting [13] was 102 % of control and the T/C under setting [14] was 102 % of control.
